Laboratory results reported in patent US20260262643A1, “HERBICIDAL BENZOXAZINES” (FMC CORPORATION, priority 2022, published 2026).
Where two headings read alike, the source gives them in different places.

Tests used:
foxtail, giant = test: Test A preemergence; format: in vivo, Setaria faberi; settings: Setaria faberi, pre-emergence, 240 h, read-out: Plant response rating, Foxtail, Giant; for pest or weed control at 125 g/ha: 125 g ai/ha, visual injury after 10 days, 0 to 100 scale, 0 is no effect, 100 is complete control; for pest or weed control at 500 g/ha: 500 g ai/ha, 0 to 100 scale (0 no effect, 100 complete control), 10 days
Summary of the method: (§1)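 Seeds in loam–sand blend received a directed preemergence soil spray of compound in non-phytotoxic solvent with surfactant; postemergence plants (2–10 cm, one- to two-leaf stage) were sprayed with the same formulation. After 10 days in greenhouse, injury was rated visually versus untreated controls, 0 (no effect) to 100 (complete control).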

goosegrass = test: Test A preemergence; format: in vivo, Eleusine indica; settings: Eleusine indica, pre-emergence, 240 h, read-out: Plant response rating, Goosegrass; for pest or weed control at 125 g/ha: 125 g ai/ha, visual injury after 10 days, 0 to 100 scale, 0 is no effect, 100 is complete control; for pest or weed control at 500 g/ha: 500 g ai/ha, 0 to 100 scale (0 no effect, 100 complete control), 10 days
Summary of the method: as §1

oat, wild [1] = test: Test A preemergence; format: in vivo, Avena fatua; settings: Avena fatua, pre-emergence, 240 h, read-out: Plant response rating, Oat, Wild; for pest or weed control at 125 g/ha: 125 g ai/ha, visual injury after 10 days, 0 to 100 scale, 0 is no effect, 100 is complete control; for pest or weed control at 500 g/ha: 500 g ai/ha, 0 to 100 scale (0 no effect, 100 complete control), 10 days
Summary of the method: as §1

pigweed, palmer [2] = test: Test A preemergence; format: in vivo, Amaranthus palmeri; settings: Amaranthus palmeri, pre-emergence, 240 h, read-out: Plant response rating, Pigweed, Palmer; for pest or weed control at 125 g/ha: 125 g ai/ha, visual injury after 10 days, 0 to 100 scale, 0 is no effect, 100 is complete control; for pest or weed control at 500 g/ha: 500 g ai/ha, 0 to 100 scale (0 no effect, 100 complete control), 10 days
Summary of the method: as §1

ryegrass, Italian [3] = test: Test A preemergence; format: in vivo, Lolium multiflorum; settings: Lolium multiflorum, pre-emergence, 240 h, read-out: Plant response rating, Ryegrass, Italian; for pest or weed control at 125 g/ha: 125 g ai/ha, visual injury after 10 days, 0 to 100 scale, 0 is no effect, 100 is complete control; for pest or weed control at 500 g/ha: 500 g ai/ha, 0 to 100 scale (0 no effect, 100 complete control), 10 days
Summary of the method: as §1

corn = test: Test A postemergence; format: in vivo, Zea mays; settings: Zea mays, post-emergence, 240 h; for Corn plant response rating (crop injury, 0 = no effect, 100 = complete kill) at 500 g/ha: 500 g ai/ha
Summary of the method: as §1

oat, wild [4] = test: Test A postemergence; format: in vivo, Avena fatua; settings: Avena fatua, post-emergence, 240 h; for pest or weed control at 125 g/ha: 125 g ai/ha; for pest or weed control at 500 g/ha: 500 g ai/ha
Summary of the method: as §1

pigweed, palmer [5] = test: Test A postemergence; format: in vivo, Amaranthus palmeri; settings: Amaranthus palmeri, post-emergence, 240 h; for pest or weed control at 125 g/ha: 125 g ai/ha; for pest or weed control at 500 g/ha: 500 g ai/ha
Summary of the method: as §1

ryegrass, Italian [6] = test: Test A postemergence; format: in vivo, Lolium multiflorum; settings: Lolium multiflorum, post-emergence, 240 h; for pest or weed control at 125 g/ha: 125 g ai/ha; for pest or weed control at 500 g/ha: 500 g ai/ha
Summary of the method: as §1

soybean = test: Test A postemergence; format: in vivo, Glycine max; settings: Glycine max, post-emergence, 240 h; for plant injury at 125 g/ha: 125 g ai/ha; for plant injury at 500 g/ha: 500 g ai/ha
Summary of the method: as §1

galium = test: Test A postemergence; format: in vivo, Galium aparine; settings: Galium, post-emergence, 240 h; for pest or weed control at 125 g/ha: 125 g ai/ha; for pest or weed control at 500 g/ha: 500 g ai/ha
Summary of the method: as §1

horseweed = test: Test A postemergence; format: in vivo, Erigeron canadensis; settings: Erigeron canadensis, post-emergence, 240 h; for pest or weed control at 125 g/ha: 125 g ai/ha; for pest or weed control at 500 g/ha: 500 g ai/ha
Summary of the method: as §1

barnyardgrass = test: Test B flooded paddy test; format: in vivo, Echinochloa crus-galli; settings: Echinochloa crus-galli, 312 h, 250 g ai/ha, Flood, 13 days, 0 to 100 scale (0 no effect, 100 complete control); read-out: Plant response rating, Barnyardgrass
Summary of the method: (§2)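 Plants at the 2-leaf stage were flooded to 3 cm above the soil, and test compounds were applied directly into the paddy water, with that depth held throughout. After 13 days in a greenhouse, injury was rated visually against untreated controls on a 0–100 scale (100 = complete control).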

sedge, umbrella = test: Test B flooded paddy test; format: in vivo, Cyperus difformis; settings: Cyperus difformis, 312 h; 250 g ai/ha, Flood, 13 days, 0 to 100 scale (0 no effect, 100 complete control); read-out: Plant response rating, Sedge, Umbrella
Summary of the method: as §2

[7] = postemergence, 10 days, visual injury, 0 to 100 scale (0 no effect, 100 complete control), read-out: Plant response rating, Oat, Wild
[8] = postemergence, 10 days, visual injury, 0 to 100 scale (0 no effect, 100 complete control), read-out: Plant response rating, Pigweed, Palmer
[9] = postemergence, 10 days, visual injury, 0 to 100 scale (0 no effect, 100 complete control), read-out: Plant response rating, Ryegrass, Italian
[10] = postemergence, 10 days, visual injury, 0 to 100 scale (0 no effect, 100 complete control), read-out: Plant response rating, Soybean
[11] = postemergence, 10 days, visual injury, 0 to 100 scale (0 no effect, 100 complete control), read-out: Plant response rating, Galium
[12] = postemergence, 10 days, visual injury, 0 to 100 scale (0 no effect, 100 complete control), read-out: Plant response rating, Horseweed

COc1ccc(-n2cncn2)cc1C(=O)N1C[C@H](C)Oc2c(C)cccc21 [Compound 63, [(2S)-2,3-Dihydro-2,8-dimethyl-4H-1,4-benzoxazin-4-yl][2-methoxy-5-(1H-1,2,4-triazol-1-yl)phenyl]methanone]
pest or weed control at 125 g/ha (foxtail, giant): 100% | pest or weed control at 500 g/ha (foxtail, giant): 100% | pest or weed control at 125 g/ha (goosegrass): 100% | pest or weed control at 500 g/ha (goosegrass): 100% | pest or weed control at 125 g/ha (oat, wild [1]): 60% | pest or weed control at 500 g/ha (oat, wild [1]): 90% | pest or weed control at 125 g/ha (pigweed, palmer [2]): 40% | pest or weed control at 500 g/ha (pigweed, palmer [2]): 90% | pest or weed control at 125 g/ha (ryegrass, Italian [3]): 90% | pest or weed control at 500 g/ha (ryegrass, Italian [3]): 100% | Corn plant response rating (crop injury, 0 = no effect, 100 = complete kill) at 125 g/ha (corn; 125 g ai/ha, postemergence, 10 days, visual injury, 0 to 100 scale (0 no effect, 100 complete control)): 80% | Corn plant response rating (crop injury, 0 = no effect, 100 = complete kill) at 500 g/ha (corn; Postemergence, 0 to 100 scale): 80% | pest or weed control at 125 g/ha (oat, wild [4]; [7]): 70% | pest or weed control at 500 g/ha (oat, wild [4]; Postemergence, 0 to 100 scale, read-out: Plant response rating, Oat, Wild): 80% | pest or weed control at 125 g/ha (pigweed, palmer [5]; [8]): 30% | pest or weed control at 500 g/ha (pigweed, palmer [5]; Postemergence, 0 to 100 scale, read-out: Plant response rating, Pigweed, Palmer): 40% | pest or weed control at 125 g/ha (ryegrass, Italian [6]; [9]): 80% | pest or weed control at 500 g/ha (ryegrass, Italian [6]; Postemergence, 0 to 100 scale, read-out: Plant response rating, Ryegrass, Italian): 100% | plant injury at 125 g/ha (soybean; [10]): 100% | plant injury at 500 g/ha (soybean; Postemergence, 0 to 100 scale, read-out: Plant response rating, Soybean): 100% | pest or weed control at 125 g/ha (galium; [11]): 100% | pest or weed control at 500 g/ha (galium; Postemergence, 0 to 100 scale, read-out: Plant response rating, Galium): 100% | pest or weed control at 125 g/ha (horseweed; [12]): 20% | pest or weed control at 500 g/ha (horseweed; Postemergence, 0 to 100 scale, read-out: Plant response rating, Horseweed): 40% | pest or weed control at 250 g/ha (barnyardgrass): 0% | pest or weed control at 250 g/ha (sedge, umbrella): 98%

CCc1ccc(-n2cnc(C(C)C)n2)cc1C(=O)N1C[C@H](C)Oc2c(Cl)cccc21 [Compound 94, [(2S)-8-Chloro-2,3-dihydro-2-methyl-4H-1,4-benzoxazin-4-yl][2-ethyl-5-[3-(1-methylethyl)-1H-1,2,4-triazol-1-yl]phenyl]methanone]
pest or weed control at 125 g/ha (foxtail, giant): 100% | pest or weed control at 500 g/ha (foxtail, giant): 100% | pest or weed control at 125 g/ha (goosegrass): 100% | pest or weed control at 500 g/ha (goosegrass): 100% | pest or weed control at 125 g/ha (oat, wild [1]): 40% | pest or weed control at 500 g/ha (oat, wild [1]): 90% | pest or weed control at 125 g/ha (pigweed, palmer [2]): 100% | pest or weed control at 500 g/ha (pigweed, palmer [2]): 100% | pest or weed control at 125 g/ha (ryegrass, Italian [3]): 90% | pest or weed control at 500 g/ha (ryegrass, Italian [3]): 100% | plant injury at 125 g/ha (corn; 125 g ai/ha, postemergence, 10 days, 0 to 100 scale (0 no effect, 100 complete control), read-out: Corn plant response rating): 80% | Corn plant response rating (crop injury, 0 = no effect, 100 = complete kill) at 500 g/ha (corn; postemergence, 10 days, visual injury, 0 to 100 scale (0 no effect, 100 complete control)): 90% | pest or weed control at 125 g/ha (oat, wild [4]; postemergence, 10 days, 0 to 100 scale (0 no effect, 100 complete control), read-out: Oat, Wild plant response rating): 80% | pest or weed control at 500 g/ha (oat, wild [4]; [7]): 80% | pest or weed control at 125 g/ha (pigweed, palmer [5]; postemergence, 10 days, 0 to 100 scale (0 no effect, 100 complete control), read-out: Pigweed, Palmer plant response rating): 90% | pest or weed control at 500 g/ha (pigweed, palmer [5]; [8]): 90% | pest or weed control at 125 g/ha (ryegrass, Italian [6]; postemergence, 10 days, 0 to 100 scale (0 no effect, 100 complete control), read-out: Ryegrass, Italian plant response rating): 50% | pest or weed control at 500 g/ha (ryegrass, Italian [6]; [9]): 90% | plant injury at 125 g/ha (soybean; postemergence, 10 days, 0 to 100 scale (0 no effect, 100 complete control), read-out: Soybean plant response rating): 100% | plant injury at 500 g/ha (soybean; [10]): 100% | pest or weed control at 125 g/ha (galium; postemergence, 10 days, 0 to 100 scale (0 no effect, 100 complete control), read-out: Galium plant response rating): 100% | pest or weed control at 500 g/ha (galium; [11]): 100% | pest or weed control at 125 g/ha (horseweed; postemergence, 10 days, 0 to 100 scale (0 no effect, 100 complete control), read-out: Horseweed plant response rating): 0% | pest or weed control at 500 g/ha (horseweed; [12]): 50% | pest or weed control at 250 g/ha (barnyardgrass): 30% | pest or weed control at 250 g/ha (sedge, umbrella): 98%
